Measured values: patent publication US6953814B2, “Natural insect repellant” (Stratacor, Inc., priority 1997, dated 2005)
Where two headings read alike, the source gives them in different places.

How the values were obtained:
Vapor pressure = type: physicochemical; details: for Vol. (vapor pressure), (est): at 125° C., estimated or extrapolated from literature values
Aedes aegypti [1] = details: 0.5 mg/cm^2 on the skin of man; cited from earlier work
Aedes aegypti mosquitoes [2] = details: 0.31 mg/cm^2; cited from earlier work
mosquitoes = details: Hill et al. 1979; cited from earlier work
Aedes aegypti mosquitoes [3] = assay: Mosquito repellency on gauze or polyester film (olfactometer); type: in vivo; details: Aedes aegypti, 0.05 h, cotton gauze or polyester film, 0.3 mg/cm^2, 3 minutes after application; read-out: Percent Repellency
Text: Olfactometer: A Fiensod and […] olfactometer, as modified by Bowen and Davis, measured the host-oriented flight response of female mosquitoes to volatile host emanations (Feinsod, F. M., and […]; An olfactometer for measuring host-seeking behavior of female Aedes aegypti (Diptera: Culicidae); J. Med. Entomol., 15: 282-285, 1979). The olfactometer (approximately 38 cm high) consisted of an upper and lower screened chamber with a closure between the chambers (FIG. 8). A fan placed above the upper chamber drew air through the apparatus at approximately 0.2 m/s. A temperature and humidity controlled chamber (5' wide by 6' long by 8' high) was constructed to house the test subject and the olfactometer. Rearing of Mosquitoes: A second environmental chamber, maintained at 27° C. and 80% humidity, was dedicated to the rearing of Aedes aegypti mosquitoes. […] Assays for Attraction of Mosquitoes to Human Subjects: A group of 30 volunteers, consisting of 14 females and 16 males and ranging in age from 24 to 68 years, was selected from the surrounding civilian population. Individuals were tested for their ability to attract Aedes aegypti mosquitoes contained in the olfactometer. Tests were conducted at a temperature of 27° C. and 50% relative humidity. […] A small fan was placed on top of the upper chamber to cause an air flow from the lower chamber to the upper chamber. A trial began when the closure between the upper and lower chamber was opened in the absence of a human host. […] This trial was repeated twice during a test session to obtain three replicates. Two additional test sessions, at time intervals of at least 1 week, were conducted to obtain at least 8-9 replicates for each of 24 subjects. Of the remaining 6 subjects, 3 were tested on two separate occasions for a total of 6 replicates per subject; 3 were tested on one occasion for a total of 3 replicates per subject. A total of 254 tests were conducted. Test compounds were dissolved in acetone or ethanol at a concentration of 150 mg/5 cc. Ethanol solutions of carboxylic acids were prepared just prior to use. Five hundred microliters of these solutions were applied to a 50 cm^2 circular area of a single layer of cotton gauze (Curity Curad gauze, Futuro Inc., Milford, Ohio) or nonwoven polyester film ([…], Inc.). The resultant dose was 0.3 mg/cm^2. […] The cup was attached to the bottom of the olfactometer (FIG. 8) so that air flowed through the stainless steel screen of the cup, through the treated gauze or film, and through the olfactometer. A volunteer's forearm was placed under the cup, so that air drawn into the cup and olfactometer was laden with human skin emanations. Tests were conducted as described in the preceding paragraph, “Assays for attraction of mosquitoes to human subjects”. Percent repellency was determined from the fraction of mosquitoes entering the lower chamber over a seven minute period. This assay is an approximate measure of the intrinsic repellency of a compound. Good repellency in this test is a necessary, but not sufficient, condition for good repellency on skin. Mosquito repellents must produce a vapor over the skin surface to confuse the host seeking behavior of the insect. However, volatilization must not be so great that the repellent action rapidly dissipates. Since volatilization from the skin will be different from an inanimate surface, skin tests are necessary to confirm that a compound will be a practical repellent.

Aedes aegypti mosquitoes [4] = assay: Mosquito repellency on skin (olfactometer, human forearm); type: in vivo; details: for repellency immediately after application to skin, compared to DEET: FIG. 4; for Percent Repellency 2 h: 0.3 mg/cm^2, 2 h after application; for Percent Repellency 4 h: 0.3 mg/cm^2, 4 h after application
Text: Olfactometer: A Fiensod and Spielman olfactometer, as modified by Bowen and Davis, measured the host-oriented flight response of female mosquitoes to volatile host emanations (Feinsod, F. M., and A. Spielman; An olfactometer for measuring host-seeking behavior of female Aedes aegypti (Diptera: Culicidae); J. Med. Entomol., 15: 282-285, 1979). The olfactometer (approximately 38 cm high) consisted of an upper and lower screened chamber with a closure between the chambers (FIG. 8). A fan placed above the upper chamber drew air through the apparatus at approximately 0.2 m/s. A temperature and humidity controlled chamber (5′ wide by 6′ long by 8′ high) was constructed to house the test subject and the olfactometer.
Rearing of Mosquitoes: A second environmental chamber, maintained at 27° C. and 80% humidity, was dedicated to the rearing of Aedes aegypti mosquitoes. Routine shipments of eggs (American Biological Supply, Gainesville, Fla.) were used to maintain a continuous supply of adult 5-10 day old mosquitoes.
Assays for Attraction of Mosquitoes to Human Subjects: A group of 30 volunteers, consisting of 14 females and 16 males and ranging in age from 24 to 68 years, was selected from the surrounding civilian population. Individuals were tested for their ability to attract Aedes aegypti mosquitoes contained in the olfactometer. Tests were conducted at a temperature of 27° C. and 50% relative humidity. For each trial 15 avid adult female Aedes aegypti mosquitoes (5-10 days post-emergence) were placed in the upper chamber. A small fan was placed on top of the upper chamber to cause an air flow from the lower chamber to the upper chamber. A trial began when the closure between the upper and lower chamber was opened in the absence of a human host. The number of mosquitoes entering the lower chamber within a 3 minute period was recorded. The volunteer then placed his or her arm beneath the lower chamber and the number of mosquitoes flying from the upper chamber to the lower chamber was recorded for the time intervals 0-1, 1-3, 3-5 and 5-7 minutes. This trial was repeated twice during a test session to obtain three replicates. Two additional test sessions, at time intervals of at least 1 week, were conducted to obtain at least 8-9 replicates for each of 24 subjects. Of the remaining 6 subjects, 3 were tested on two separate occasions for a total of 6 replicates per subject; 3 were tested on one occasion for a total of 3 replicates per subject. A total of 254 tests were conducted.
Test compounds were dissolved in acetone or ethanol at a concentration of 300 mg/5 cc. Ethanol solutions of carboxylic acids were prepared just prior to use. Three hundred and fifty microliters of these solutions were applied to a 70 cm^2 rectangular area of the forearm. The resultant dose was 0.3 mg/cm^2. The repellent treated area was allowed to dry for 5 minutes prior to test. The treated skin area was placed under the olfactometer and tests were conducted as described in the preceding paragraph, “Assays for attraction of mosquitoes to human subjects”. Percent repellency was determined from the fraction of mosquitoes entering the lower chamber over a seven minute period.
A commercial formulation of DEET (Skintastic, S. C. Johnson, Racine,) was applied to a 100 cm^2 area on the forearm of 1 volunteer (subject 02) to give a dose of 0.3 mg/cm^2 of DEET. A formulation of C8C9C10 (5% octanoic, 5% nonanoic, 5% decanoic in Dow Corning 345 volatile silicone fluid) was applied to a 100 cm^2 on the subject's other arm to give a dose of 0.3 mg/cm^2 total acids. Application sites were placed under the olfactometer at 1, 2 and 4 hours after treatment. Untreated areas on each arm were placed under the olfactometer at the completion of the treated area tests to check the avidity of the mosquitoes. Tests were done on four separate test days. […]

Aedes aegypti mosquitoes [5] = assay: as above; type: in vivo; details: on skin
[6] = tested on: yellow fever mosquito (Aedes aegypti (L.)); details: human skin, approximately 2 mg/cm^2, time until two bites; DEET from Gilbert 1957; cited from earlier work
[7] = tested on: malaria mosquito (Anopheles quadrimaculatus Say); details: human skin, approximately 2 mg/cm^2, time until two bites; cited from earlier work
[8] = rabbit, in vivo; cited from earlier work
[9] = cited from earlier work
[10] = cited from earlier work; remark: listed apart in the source
Aedes aegypti [11] = details: King 1954; cited from earlier work

In the case of `CCCCCCCC=CC(=O)O` [2-Decenoic acid], the “Vol. (vapor pressure), (est)” value (Vapor pressure) is listed as 2.4 (est) mm Hg, the “Protection Time” value (Aedes aegypti [1]) is listed as 6 ± 4 h and the “Protection time against Aedes aegypti mosquitoes” value (Aedes aegypti mosquitoes [2]) is listed as <15 min.

For `CCCCCCCCCC=CC(=O)O` [2-Dodecenoic Acid], the “Protection time against Aedes aegypti mosquitoes” value (Aedes aegypti mosquitoes [2]) is given as 120 min.

For `CCCC(O)C(CC)CO` (centres unmarked) [2-Ethyl-1,3-hexanediol, reference compound], the “volatility relative to DEET” value (Vapor pressure; from vapor pressures of Table 7) is given as “twice as volatile as DEET” and the “protects against mosquitoes for” value (mosquitoes) is given as 3 to 4 h.

In the case of `CCCCCCC=CC(=O)O` [2-Nonenoic Acid], the “Protection time against Aedes aegypti mosquitoes” value (Aedes aegypti mosquitoes [2]) is given as 120 min.

In the case of `CCCCCC=CC(=O)O` [2-Octenoic acid, 2-Octenoic Acid], the pest or weed control at 0.3 mg/cm2 (Aedes aegypti mosquitoes [3]) is reported as 97 ± 5%, the “repellency immediately after application to skin, compared to DEET” value (from here on “repellency immediately … compared to DEET”) (Aedes aegypti mosquitoes [4]) is reported as “less repellent” and the “Percent Repellency 2 h” value (Aedes aegypti mosquitoes [4]; on skin) is reported as 29 (1) %. For the same compound, the “Percent Repellency 4 h” value (Aedes aegypti mosquitoes [4]; on skin) was 27 (1) % and the “Vol. (vapor pressure), (est)” value (Vapor pressure) was 10.8 mm Hg.

For `CCC=CC(=O)O` [2-Pentenoic acid, 2-Pentenoic Acid], the pest or weed control at 0.3 mg/cm2 (Aedes aegypti mosquitoes [3]) was 100% and the “Vol. (vapor pressure), (est)” value (Vapor pressure) was 92 mm Hg.

For `CCCCCC(C)=CC(=O)O` [3-Methyl-2-octenoic acid], the pest or weed control at 0.3 mg/cm2 (Aedes aegypti mosquitoes [3]) was 95%, the “repellency immediately … compared to DEET” value (Aedes aegypti mosquitoes [4]) was “less repellent” and the “Percent Repellency 2 h” value (Aedes aegypti mosquitoes [4]; on skin) was 40 ± 5 (3) %. The “Percent Repellency 4 h” value (Aedes aegypti mosquitoes [4]; on skin) was 47 ± 21%, the “Percent Repellency 8 h” value (Aedes aegypti mosquitoes [4]; on skin, 0.3 mg/cm^2, 8 h after application) was 60% and the “Vol. (vapor pressure), (est)” value (Vapor pressure) was 6 (est) mm Hg. The “Percent Repellency 2 h” value (Aedes aegypti mosquitoes [5]; 0.6 mg/cm^2, 2 h after application) was 73% (1) and the “Percent Repellency 4 h” value (Aedes aegypti mosquitoes [5]; 0.6 mg/cm^2, 4 h after application) was 40 (1) %.

In the case of `CCC(C)=CC(=O)O` [3-Methyl-2-pentenoic acid, 3-Methyl-2-pentenoic Acid], the pest or weed control at 0.3 mg/cm2 (Aedes aegypti mosquitoes [3]) is reported as 65% and the “Vol. (vapor pressure), (est)” value (Vapor pressure) is reported as 49.5 mm Hg.

For `CCC(C)CC(=O)O` (centres unmarked) [3-Methylpentanoic Acid], the pest or weed control at 0.3 mg/cm2 (Aedes aegypti mosquitoes [3]) was 43 ± 14% and the “Vol. (vapor pressure), (est)” value (Vapor pressure) was 49.5 mm Hg.

In the case of `CCCCC/C=C\C/C=C\C/C=C\C/C=C\CCCC(=O)O` [Arachidonic Acid], the “Protection time against Aedes aegypti mosquitoes” value (Aedes aegypti mosquitoes [2]) is given as <15 min.

For `CCCCCCCCCC(=O)O` [Decanoic acid], the pest or weed control at 0.3 mg/cm2 (Aedes aegypti mosquitoes [3]) was 93 to 100%, the “Percent Repellency 2 h” value (Aedes aegypti mosquitoes [4]; on skin) was 53 (1) % and the “Percent Repellency 4 h” value (Aedes aegypti mosquitoes [4]; on skin) was 73 (1) %. The “Protection time against yellow fever mosquitoes” value [6] was 300+ min, the “Protection time against malaria mosquitoes” value [7] was 61 to 90 min and the Skin irritation [8] was “moderate to severe irritation”.

In the case of `CCCCCCCCCCCC(=O)O` [Dodecanoic acid], the “Vol. (vapor pressure), (est)” value (Vapor pressure) is reported as 0.57 mm Hg.

For `CCCCCCC(=O)O` [Ethanthic, ethanthic acid, reference compound], the “Protection time against yellow fever mosquitoes” value [6] is listed as 121 to 180 min and the “Protection time against malaria mosquitoes” value [7] is listed as 90+ min.

In the case of `CCCCC/C=C\C/C=C\CCCCCCCC(=O)O` [Linoleic Acid], the “Protection time against Aedes aegypti mosquitoes” value (Aedes aegypti mosquitoes [2]) is given as <15 min.

For `CCCCCCCCC(=O)O` [Nonanoic acid], the pest or weed control at 0.3 mg/cm2 (Aedes aegypti mosquitoes [3]) was 93 to 100%, the “repellency two hours after skin application, ranking” value (Aedes aegypti mosquitoes [4]; FIG. 5) was “highest repellency” and the “Percent Repellency 2 h” value (Aedes aegypti mosquitoes [4]; on skin) was 66 (1) %. The “Percent Repellency 4 h” value (Aedes aegypti mosquitoes [4]; on skin) was 47 (1) %, the “Protection time against yellow fever mosquitoes” value [6] was 180+ min and the “Protection time against malaria mosquitoes” value [7] was 31 to 60 min. For the same compound, the Skin irritation [8] was “moderate irritation”, the “Irritation or sensitization reactions” value ([9]; in vivo) was “no irritation or sensitization reactions” and the Erythema ([10]; in vivo) was “Erythema was observed”.

For `CCCCCCCC(=O)O` [Octanoic acid], the pest or weed control at 0.3 mg/cm2 (Aedes aegypti mosquitoes [3]) was 87 ± 1%, the “repellency immediately … compared to DEET” value (Aedes aegypti mosquitoes [4]) was “comparable to DEET” and the “Percent Repellency 2 h” value (Aedes aegypti mosquitoes [4]; on skin) was 36 (1) %. The “Percent Repellency 2 h” value (Aedes aegypti mosquitoes [4]; on skin, listed as octanoic acid) was 36%, the Skin irritation [8] was “moderate to severe irritation” and the “Irritation or sensitization reactions” value ([9]; 1% in petrolatum, skin of human subjects) was “no irritation or sensitization reactions”. The Erythema ([10]; repeated applications of 0.5 M propanol solutions, occlusive, human males) was “Erythema was observed”.

For `CCCCCCCC/C=C\CCCCCCCC(=O)O` [Oleic Acid], the “Protection time against Aedes aegypti mosquitoes” value (Aedes aegypti mosquitoes [2]) is listed as <15 min.

For `CCCCCCCCCCC(=O)O` [Undecanoic acid], the pest or weed control at 0.3 mg/cm2 (Aedes aegypti mosquitoes [3]) is listed as 93 to 100%, the “Vol. (vapor pressure), (est)” value (Vapor pressure) is listed as 1.5 (est) mm Hg and the “Protection time against yellow fever mosquitoes” value [6] is listed as 300+ min. For the same compound, the “Protection time against malaria mosquitoes” value [7] was 90+ min.

In the case of `C=CCCCCCCCCC(=O)O` [Undecylenic Acid], the “Protection time against Aedes aegypti mosquitoes” value (Aedes aegypti mosquitoes [2]) is given as 210 min.

Work on `O=C1CCCCN1` [Valerolactam] yielded a pest or weed control at 0.3 mg/cm2 (Aedes aegypti mosquitoes [3]) of 20%.

In the case of `O=C(c1ccccc1)c1ccccc1` [benzophenone], the “repellent to Aedes aegypti” value (Aedes aegypti [11]) is given as “repellent”.

For `CC(C)OC(=O)CCCCC(=O)OC(C)C` [diisopropyl adipate], the “repellent to Aedes aegypti” value (Aedes aegypti [11]) is listed as “repellent”.
